Results: publication PMC11956012, “Optimization of Cyclophilin B-Targeted Tri-vector Inhibitors for Novel MASH Treatments” (Journal of Medicinal Chemistry, 2025)
Read-outs that look alike come from different tables or passages of the source.

Key:
[1] = tested on: iPSC-derived hepatocytes; assay: In vitro hepatic steatosis (MASH) assay; assay type: cell-based; conditions: 48 h treatment; for EC50: Hepatocyte, 48 h
[2] = Intrinsic clearance, rat liver microsomes; assay type: in vitro ADME
[3] = Intrinsic clearance, human liver microsomes; assay type: in vitro ADME
[4] = Intrinsic clearance, rat hepatocytes; assay type: in vitro ADME; conditions: hepatocytes
[5] = Intrinsic clearance, human hepatocytes; assay type: in vitro ADME; conditions: hepatocytes
[6] = Rat plasma protein binding; assay type: in vitro ADME
Text: (§1) These experiments were subcontracted to Eurofins. […]

[7] = Human plasma protein binding; assay type: in vitro ADME
Text: as §1

[8] = tested on: CYP1A; assay: Cytochrome P450 inhibition CYP1A; assay type: in vitro ADME; conditions: human, probe phenacetin; single point at 10 μM; substrate phenacetin
[9] = target: T1, CYP2B6 (Homo sapiens, UniProt P20813); assay: Cytochrome P450 inhibition CYP2B6; assay type: in vitro ADME; conditions: single point at 10 μM; substrate bupropion
T1 construct: Eurofins (subcontracted)
T1 sequence (P20813 1-491): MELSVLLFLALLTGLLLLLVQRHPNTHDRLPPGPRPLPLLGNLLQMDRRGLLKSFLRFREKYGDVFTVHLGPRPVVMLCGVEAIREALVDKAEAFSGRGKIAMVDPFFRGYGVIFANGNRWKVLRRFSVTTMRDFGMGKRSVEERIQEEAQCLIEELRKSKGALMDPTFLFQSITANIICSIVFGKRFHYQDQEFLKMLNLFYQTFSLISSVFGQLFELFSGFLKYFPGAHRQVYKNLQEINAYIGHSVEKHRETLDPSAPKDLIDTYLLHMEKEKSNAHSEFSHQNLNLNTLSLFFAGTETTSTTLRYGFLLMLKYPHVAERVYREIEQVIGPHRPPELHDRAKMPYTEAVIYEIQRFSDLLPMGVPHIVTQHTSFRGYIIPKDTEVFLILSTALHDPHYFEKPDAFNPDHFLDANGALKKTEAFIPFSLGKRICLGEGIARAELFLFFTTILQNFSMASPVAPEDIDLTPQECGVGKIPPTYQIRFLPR

[10] = target: T2, CYP2C8 (Homo sapiens, UniProt P10632); assay: Cytochrome P450 inhibition CYP2C8; assay type: in vitro ADME; conditions: single point at 10 μM; substrate amodiaquine
T2 construct: Eurofins (subcontracted)
T2 sequence (P10632 1-490): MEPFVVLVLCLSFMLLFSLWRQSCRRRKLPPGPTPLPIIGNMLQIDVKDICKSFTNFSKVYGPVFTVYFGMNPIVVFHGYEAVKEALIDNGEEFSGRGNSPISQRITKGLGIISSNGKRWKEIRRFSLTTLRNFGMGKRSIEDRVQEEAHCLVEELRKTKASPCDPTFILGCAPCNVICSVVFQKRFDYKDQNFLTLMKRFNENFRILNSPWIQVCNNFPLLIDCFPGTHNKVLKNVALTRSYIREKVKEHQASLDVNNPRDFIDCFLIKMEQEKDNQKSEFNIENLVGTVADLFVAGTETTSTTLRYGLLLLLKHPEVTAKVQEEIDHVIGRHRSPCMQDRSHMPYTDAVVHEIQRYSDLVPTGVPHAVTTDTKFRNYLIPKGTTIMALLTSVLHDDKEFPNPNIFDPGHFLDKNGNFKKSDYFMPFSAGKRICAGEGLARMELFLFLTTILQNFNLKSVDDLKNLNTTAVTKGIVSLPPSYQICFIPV

[11] = target: T3, CYP2C9 (Homo sapiens, UniProt P11712); assay: Cytochrome P450 inhibition CYP2C9; assay type: in vitro ADME; conditions: single point at 10 μM; substrate diclofenac
T3 construct: Eurofins (subcontracted)
T3 sequence (P11712 whole entry): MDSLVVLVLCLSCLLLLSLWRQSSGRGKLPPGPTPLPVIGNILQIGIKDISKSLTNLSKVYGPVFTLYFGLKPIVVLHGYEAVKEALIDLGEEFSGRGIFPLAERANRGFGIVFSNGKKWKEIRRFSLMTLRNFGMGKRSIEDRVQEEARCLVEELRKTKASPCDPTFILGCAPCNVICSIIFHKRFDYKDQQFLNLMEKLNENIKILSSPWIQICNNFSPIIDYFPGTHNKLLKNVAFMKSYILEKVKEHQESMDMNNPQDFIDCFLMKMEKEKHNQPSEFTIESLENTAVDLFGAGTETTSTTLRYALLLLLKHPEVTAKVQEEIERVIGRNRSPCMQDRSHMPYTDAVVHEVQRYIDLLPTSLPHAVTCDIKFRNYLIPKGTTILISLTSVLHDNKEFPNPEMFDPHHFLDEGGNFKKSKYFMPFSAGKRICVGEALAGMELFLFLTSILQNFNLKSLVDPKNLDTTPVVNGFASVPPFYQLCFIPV

[12] = target: T4, CYP2C19 (Homo sapiens, UniProt P33261); assay: Cytochrome P450 inhibition CYP2C19; assay type: in vitro ADME; conditions: single point at 10 μM; substrate omeprazole
T4 construct: Eurofins (subcontracted)
T4 sequence (P33261 whole entry): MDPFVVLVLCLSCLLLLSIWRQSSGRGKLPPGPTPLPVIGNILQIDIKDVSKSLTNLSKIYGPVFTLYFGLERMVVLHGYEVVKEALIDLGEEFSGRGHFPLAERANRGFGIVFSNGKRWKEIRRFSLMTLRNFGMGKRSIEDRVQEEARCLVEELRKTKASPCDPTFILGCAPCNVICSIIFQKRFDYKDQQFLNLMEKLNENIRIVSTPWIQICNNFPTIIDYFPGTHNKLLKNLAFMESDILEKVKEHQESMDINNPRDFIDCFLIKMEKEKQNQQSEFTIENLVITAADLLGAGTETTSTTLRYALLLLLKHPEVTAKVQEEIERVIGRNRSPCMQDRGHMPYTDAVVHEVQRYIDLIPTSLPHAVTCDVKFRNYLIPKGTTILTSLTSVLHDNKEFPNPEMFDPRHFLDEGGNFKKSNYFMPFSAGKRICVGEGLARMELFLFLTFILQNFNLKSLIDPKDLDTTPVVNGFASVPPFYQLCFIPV

[13] = target: T5, CYP2D6 (Homo sapiens, UniProt P10635); assay: Cytochrome P450 inhibition CYP2D6; assay type: in vitro ADME; conditions: single point at 10 μM; substrate dextrometorphan
T5 construct: Eurofins (subcontracted)
T5 sequence (P10635 whole entry): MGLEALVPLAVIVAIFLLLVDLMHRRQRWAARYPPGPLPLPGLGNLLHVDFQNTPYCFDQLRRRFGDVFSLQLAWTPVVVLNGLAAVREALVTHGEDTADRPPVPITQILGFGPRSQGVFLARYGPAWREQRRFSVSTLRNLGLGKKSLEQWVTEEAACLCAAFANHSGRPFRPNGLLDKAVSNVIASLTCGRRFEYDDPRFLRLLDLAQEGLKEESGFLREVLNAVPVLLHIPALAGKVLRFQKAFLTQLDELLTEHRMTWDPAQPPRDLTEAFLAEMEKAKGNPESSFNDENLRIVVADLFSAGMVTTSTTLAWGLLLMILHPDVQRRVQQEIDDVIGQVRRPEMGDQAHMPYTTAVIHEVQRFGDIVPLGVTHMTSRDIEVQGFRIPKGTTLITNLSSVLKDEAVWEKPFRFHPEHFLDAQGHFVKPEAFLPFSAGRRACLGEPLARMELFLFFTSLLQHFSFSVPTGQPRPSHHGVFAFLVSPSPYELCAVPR

[14] = tested on: CYP3A; assay: Cytochrome P450 inhibition CYP3A; assay type: in vitro ADME; conditions: human, single point at 10 μM
[15] = target: T6, Cyp A (Homo sapiens, UniProt P62937)
T6 sequence (P62937 whole entry): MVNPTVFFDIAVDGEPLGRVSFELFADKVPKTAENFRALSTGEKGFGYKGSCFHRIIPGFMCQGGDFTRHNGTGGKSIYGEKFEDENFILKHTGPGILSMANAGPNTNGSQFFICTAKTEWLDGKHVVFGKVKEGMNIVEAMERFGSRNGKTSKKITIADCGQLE
Description: (§2) The cyclophilin binding properties of the compounds were assessed by Surface Plasmon Resonance (SPR) against Cyp A, B and D isoforms (Table 1, representative sensorgrams are shown in Figure 3A).[35]
Surface Plasmon Resonance (SPR)
(§3) SPR measurements were performed on a Biacore T200 instrument (Cytiva). Ni2+ -
(§4) nitrilotriacetic acid (NTA) sensor chips, 1-ethyl-3-(3-diaminopropyl) carbodiimide
(§5) hydrochloride (EDC) and N hydroxy succinimide (NHS) were purchased from Cytiva.
(§6) Immobilization and covalent stabilization of His-Cyps Pure His-cyclophilins on the NTA
(§7) sensor chip was performed essentially as described. [Wear et al., 2017, FEBS OpenBio], using
(§8) 200 nM concentrations of each protein, in Running Buffer (PBS, pH7.4; 0.05 % surfactant P20,
(§9) 2% v/v ethanol; 50 µM EDTA), at 30 µl min-1 with 60 second contact times on the activated
(§10) NTA surfaces. This gave signals of 1,921 RU for His-CypA, 1932 RU for His-CypB and 1,397
(§11) RU for His-CypD. Specific surface protein activity was assayed by passing saturating amounts
(§12) activity were obtained for His-CypA, -B and –D, respectively.
Kinetic titration experiments
(§13) Single cycle kinetic titration binding experiments were performed in triplicate at 25 °C. 3-fold
(§14) injected over the sensor surface, at 100 µl min-1 with a 90 s contact time and a 90 s dissociation
(§15) time. The sensor surface was regenerated between experiments by dissociating any formed
(§16) complex in running buffer for at least 1,200 seconds. The apparent on-rate (k+) and off-rate (k-
(§17) ) constants and the equilibrium dissociation constant (Kd) were calculated from reference

[16] = target: T7, Cyp B (Homo sapiens, UniProt P23284); conditions: from SPR Kd
T7 sequence (P23284 32-216 limits assumed): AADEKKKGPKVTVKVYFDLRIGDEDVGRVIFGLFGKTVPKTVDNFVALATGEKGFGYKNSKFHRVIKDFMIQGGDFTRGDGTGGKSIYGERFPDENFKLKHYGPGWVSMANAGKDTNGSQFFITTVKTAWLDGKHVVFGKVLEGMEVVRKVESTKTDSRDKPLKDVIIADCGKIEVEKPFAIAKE
Description: as §2
Surface Plasmon Resonance (SPR)
as §3, §4, §5, §6, §7, §8, §9, §10, §11, §12
Kinetic titration experiments
as §13, §14, §15, §16, §17

[17] = target: Cyp D (Homo sapiens, UniProt P30405)
Chain of Cyp D (P30405 42-207): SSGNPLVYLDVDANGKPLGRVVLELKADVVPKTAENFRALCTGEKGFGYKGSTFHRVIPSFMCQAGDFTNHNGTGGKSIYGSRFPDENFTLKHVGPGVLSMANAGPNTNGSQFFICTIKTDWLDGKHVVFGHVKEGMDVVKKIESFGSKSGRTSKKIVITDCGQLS
Description: as §2
Surface Plasmon Resonance (SPR)
as §3, §4, §5, §6, §7, §8, §9, §10, §11, §12
Kinetic titration experiments
as §13, §14, §15, §16, §17

[18] = target: T7, Cyp B; assay: biochemical; conditions: Kd Cyp B, SPR-derived dissociation constant, 25 °C
Description: as §2
Surface Plasmon Resonance (SPR)
as §3, §4, §5, §6, §7, §8, §9, §10, §11, §12
Kinetic titration experiments
as §13, §14, §15, §16, §17

[19] = Caco-2 permeability; conditions: human, Caco-2
[20] = tested on: Caco-2; assay: Caco-2 permeability; conditions: apparent permeability A-B
[21] = tested on: Salmonella typhimurium TA98; assay: Ames fluctuation test TA98
Description: (§18) Bacterial cytotoxicity tests were carried out using Reverted Salmonella typhimurium strains
(§19) (TA98, TA100, TA1535, TA1537) that were incubated 96 hours at 37 Celsius. The results for
(§20) cytotoxicity are expressed as percent of control growth (OD650). Compounds with growth of
(§21) less than 60 % of control are flagged and considered cytotoxic.
(§22) Compounds were incubated for 96 hours at 37°C at 4 different concentrations (5 mM, 10 mM,
(§23) the absence and presence of rat liver S9 microsomes.
(§24) to the reversion of the histidine mutation (as judged by the ratio of OD430/OD570 being greater
(§25) than 1.0) are counted and recorded as positive counts. The significance of the positive counts
(§26) between the treatment (in the presence of test compound) and the control (in the absence of test
(§27) compound) are calculated using the one-tailed Fisher's exact test. Three significance levels are
(§28) Very strong positive, if p < 0.001, denoted as "+++"
(§29) Control experiments were carried out with 2-aminoanthracene (10 mM), 9-aminoacridine (10
(§30) mM), quercetin (30 mM) and streptozocitin (2.5 mM).

[22] = tested on: Salmonella typhimurium TA100; assay: Ames fluctuation test TA100
Description: as §18, §19, §20, §21, §22, §23, §24, §25, §26, §27, §28, §29, §30

[23] = tested on: Salmonella typhimurium TA1535; assay: Ames fluctuation test TA1535
Description: as §18, §19, §20, §21, §22, §23, §24, §25, §26, §27, §28, §29, §30

[24] = tested on: Salmonella typhimurium TA1537; assay: Ames fluctuation test TA1537
Description: as §18, §19, §20, §21, §22, §23, §24, §25, §26, §27, §28, §29, §30

[25] = Aqueous kinetic solubility, shake-flask
Description: (§31) Kinetic solubility measurements were carried out using a shake-flask technique. Compounds
(§32) were incubated for 24 hours at room temperature. Aqueous solubility (μM) was determined by
(§33) comparing the peak area of the principal peak in a calibration standard (200 μM) containing
(§34) organic solvent (methanol/water, 60/40, v/v) with the peak area of the corresponding peak in a
(§35) buffer sample. In addition, chromatographic purity (%) was defined as the peak area of the
(§36) principal peak relative to the total integrated peak area in the HPLC chromatogram of the
(§37) calibration standard. A chromatogram of the calibration standard of each test compound, along
(§38) with a UV/VIS spectrum with labeled absorbance maxima, was generated.
(§39) These were measured using a shake-flask technique. Compounds were incubated for 60 min at
(§40) room temperature. The total amount of compound was determined as the peak area of the
(§41) principal peak in a calibration standard (100 μM) containing organic solvent (methanol/water,
(§42) 60/40, v/v). The amount of compound in buffer was determined as the combined, volume
(§43) corrected, and weighted areas of the corresponding peaks in the aqueous phases of three
(§44) organic-aqueous samples of different composition. An automated weighting system was used
(§45) to ensure the preferred use of raw data from those samples with well quantifiable peak signals.
(§46) The amount of compound in organic was calculated by subtraction. Subsequently, Log D was
(§47) calculated as the Log10 of the amount of compound in the organic phase divided by the amount
of compound in the aqueous phase.

[26] = Partition coefficient (Log D), shake-flask; conditions: octanol/water
Description: as §31, §32, §33, §34, §35, §36, §37, §38, §39, §40, §41, §42, §43, §44, §45, §46, §47
of compound in the aqueous phase.

[27] = tested on: Salmonella typhimurium strains (TA98, TA100, TA1535, TA1537); assay: Ames tests, all strains (summary in words); conditions: in absence and presence of liver S9 fractions
Description: as §18, §19, §20, §21, §22, §23, §24, §25, §26, §27, §28, §29, §30

[28] = target: T6, Cyp A; assay: Isothermal titration calorimetry (ITC), Cyp A; assay type: binding; parameters: full-length human CypA (M1 – E165); made in house; host or cells: Escherichia coli OverExpress C41 BL21(DE3); conditions: 25 °C
Description: All ITC experiments were carried out at 25°C on a MicroCal Auto iTC200 (GE Healthcare)
solutions were heated to 65°C and/or sonicated prior to the experiment. Each experiment
consisted of an initial injection of 0.4 μL followed by repeated 2 μL injections to achieve
saturation. In all cases the first injection
was omitted from the data processing. All data were analysed using the MicroCal PEAQ-ITC
Analysis software. A fixed stoichiometry to 1 was applied during the non-linear regression of
the raw data for fitting the data.

CSc1ccccc1[C@H]1CCCN1C(=O)CNC(=O)N(Cc1ccc(N)c(Cl)c1)Cc1nnn(C)n1 [Compound 11, 1-[(4-Amino-3-chloro-phenyl)methyl]-1-[(2-methyltetrazol-5-yl)methyl]-3-[2-oxo-2-[(2R)-2-(2-methylsulfanylphenyl)pyrrolidin-1-yl]ethyl]urea]
effect on hepatocyte overall lipid levels and lipid droplet size (in words) [1]: significant reduction
EC50 ([1]; 95% CI [lower limit, upper limit], read-out: EC50 steatosis): ~300 nM
EC50 ([1]; read-out: EC50 MASH assay): 258 nM
microsomal CLint ([2]; Table 3, read-out: Rat Liver microsomes CL): 352 µL/min/mg
half-life ([2]; read-out: Rat Liver microsomes t1/2): 20 min
microsomal CLint ([3]; Table 3, read-out: Human Liver microsomes CL): 558 µL/min/mg
half-life ([3]; read-out: Human Liver microsomes t1/2): 12 min
hepatocyte CLint ([4]; Table 3, read-out: Rat Hepatocytes CL): 13 µL/min/1e6 cells
half-life ([4]; read-out: Rat Hepatocytes t1/2): 78 min
hepatocyte CLint ([5]; Table 3, read-out: Human Hepatocytes CL): 13 µL/min/1e6 cells
half-life ([5]; read-out: Human Hepatocytes t1/2): 74 min
recovery at 10 μM [6]: 99%
fraction unbound at 10 µM ([6]; read-out: Rat PPB free): 0.11
recovery [7]: 88%
fraction unbound at 10 µM ([7]; read-out: Human PPB free): 0.02
inhibition at 10 µM [8]: 25%
CYP2B6 bupropion % inhibition [9]: 11%
CYP2C8 amodiaquine % inhibition [10]: 71%
CYP2C9 diclofenac % inhibition [11]: 45%
CYP2C19 omeprazole % inhibition [12]: 72%
CYP2D6 dextrometor. % inhibition [13]: 18%
inhibition at 10 µM ([14]; probe midazolam, substrate midazolam, read-out: CYP3A midazolam % inhibition): 73%
inhibition at 10 µM ([14]; probe testoterone, substrate testoterone, read-out: CYP3A testoterone % inhibition): 59%
Kd [15]: 110 ± 50 nM
greater affinity for Cyp B compared to 12 [16]: ca. 7 fold
selectivity for Cyp B over Cyp A [16]: 10 fold
selectivity for Cyp B over Cyp A and Cyp D [16]: 10–20 fold
Kd [17]: 180 ± 100 nM
Kd [18]: 12 ± 3 nM
efflux ratio [19]: 2.8
Caco-2 A-B [20]: 5 10^–6 cm/s
Ames fluctuation test TA98 +S9 ([21]; with rat liver S9): neg/neg
Ames fluctuation test TA98 –S9 ([21]; without S9): neg/neg
Ames fluctuation test TA100 +S9 ([22]; with rat liver S9): neg/neg
Ames fluctuation test TA100 –S9 ([22]; without S9): neg/neg
Ames fluctuation test TA1535 +S9 ([23]; with rat liver S9): neg/neg
Ames fluctuation test TA1535 –S9 ([23]; without S9): neg/neg
Ames fluctuation test TA1537 +S9 ([24]; with rat liver S9): neg/neg
Ames fluctuation test TA1537 –S9 ([24]; without S9): neg/neg
solubility at 24 h ([25]; PBS, pH 7.4): > 200 µM
solubility at 24 h ([25]; simulated gastric fluid): > 200 µM
solubility at 24 h ([25]; simulated intestinal fluid): > 200 µM
logD at 1 h, 100 µM [26]: 1.53
Ames result in all strains tested [27]: negative
DG (ITC) ([28]; ITC titration to Cyp A): -9.7 ± 0.1 kcal/mol
DH (ITC) ([28]; ITC titration to Cyp A): -16.4 ± 0.1 kcal/mol
TDS (ITC) ([28]; ITC titration to Cyp A): -6.7 kcal/mol
Kd ([28]; ITC, pH 6.5, 2% DMSO, read-out: Kd Cyp A from ITC): 82 ± 6 nM
